Measurements reported in patent US5059442A, “Primary amide esters as low calorie fat mimetics” (Nabisco Brands, Inc., priority 1989, dated 1991).

Assays:
[1] = in vitro digestibility: hydrolysis with pancreatic lipase; assay type: in vitro ADME, porcine; conditions: pig, pH 7.1 buffer, 37° C., same conditions as triolein control
Method: (§1) This example outlines the procedure for estimating the in vitro digestibility of the synthetic fat mimetics of this invention.
(§2) 1. Buffer: A pH 7.1 phosphate buffer is prepared by dissolving 6.8 g KH2 PO4 in 1 L of millipore filtered water (to yield 0.05 M phosphate). Fifty mg Ca(NO3)2 is added and 5.0 g cholic acid (Na salt, an ox bile isolate from Sigma) to give 0.3 mM Ca++ and 0.5 % cholic acid in 0.05 M phosphate. The pH is adjusted to approximately 7.1 with solid NaOH. Several drops of Baker "Resi-analyzed" toluene are added to prevent bacterial growth during storage at 3°-5° C. 2. Lipase: About 15 mg/mL commercial porcine pancreatic lipase from U.S. Biochemical Corporation is dissolved in buffer.
(§3) 3. Substrates and Standards: A 1.0 mL volumetric flask is charged with an amount of lipid substrate calculated to give a concentration of 200 nanomoles per microliter in Baker "Resianalyzed" toluene. (The proper concentration may be approximated by doubling the molecular weight of the lipid in question, dividing by 10, and diluting to the mark; this yields about 200 nanomoles per microliter.) This preparation affords the substrate to be used in the hydrolysis reactions.
(§4) Fatty acids and glyceride standards from Nu Chek or Sigma are prepared for elution on TLC plates (prewashed with 1:1 chloroform/methanol) by diluting the substrate solution with 10:1 toluene (1 part substrate plus 9 parts toluene) in septum vials.
(§5) In a 25 mL Erlenmeyer, emulsify 20 mL buffer and 40 microliters of substrate using an ultrasonic disrupter at a microtip maximum setting for approximately 10 seconds. […] Place in a 37° C. water bath and stir vigorously. After temperature equilibration, add 40 microliters of enzyme solution and start timing. Remove 5.0 mL aliquots at convenient time intervals for analysis. To establish a standard curve for triolein, aliquots are taken at 10, 20, 30 and 40 minutes.
(§6) Add the aliquot to a 15 mL glass centrifuge tube containing a drop of concentrated HCl. Add approximately 3 mL of a 2:1 mixture of CHCl3 :CH3 OH and shake vigorously. Centrifuge at approximately 5000 rpm for 5 minutes and transfer the bottom layer with a Pasteur pipet to a 5 mL septum vial. Repeat the extraction step once and combine the two bottom layers. Evaporate the solvent in nitrogen gas. After about half of the solvent is removed, add an equivalent volume absolute ethanol and continue evaporation in a nitrogen stream until dryness is achieved. Samples may be warmed with a heat gun to facilitate drying.
(§7) When the samples are dry, add exactly 200 microliters of toluene containing 10% DMSO, cap tightly, and spot TLC plate with 2.0 microliters per channel. […]

[2] = in vivo animal feeding study for caloric availability; set-up: species or system male Sprague-Dawley rats; conditions: rats, diet of 50% fort and 21% test compound, 14 days; from weight gain and corn oil base line correlation
Description: This example illustrates how the novel fat mimetics of this invention are screened for caloric availability by a carefully controlled in vivo animal feeding study.
An experimental relationship between total calories ingested and animal body weight gain is established by monitoring the body weight gain associated with consumption of a nutritionally balanced diet containing varying concentrations of a reference substance such as corn oil which has a known caloric availability. Correlations between total calories ingested and body weight gain are excellent (r=0.99).
Caloric availability of a test material is evaluated by substituting a specific weight of the test material for the reference substance and observing the body weight gain. The gain in body weight is equated to a total number of calories using the correlation previously established for the reference data. The estimated number of calories ingested are divided by the weight of test material to give the apparent calories per gram for the test material. Generally speaking, in these bioavailability studies, the degree of perianal pelt soiling correlates with reduced bioavailability.
The test animals are six-week-old male Sprague-Dawley rats obtained from the Portage, Michigan facility of the Charles River Laboratories, Inc. After acclimation for 15 days, the test duration is 14 days. […]

[3] = test system: porcine pancreatic lipase; experiment: in vitro digestibility: hydrolysis with pancreatic lipase; assay type: in vitro ADME; conditions: pH 7.1 buffer, 37° C., in 10 minutes
Method: as §1, §2, §3, §4, §5, §6, §7

[4] = rat, in vivo; cited from earlier work

| Compound | metabolised [1] | further results |
| --- | --- | --- |
| CCCCCCCC/C=C\CCCCCCCC(=O)NCC(COC(=O)CCCCCCC/C=C\CCCCCCCC)OC(=O)CCCCCCC/C=C\CCCCCCCC (stereo not drawn) [Example 2, 2,3-Bis(oleyoyloxy)propyl oleamide] | 50% | caloric availability (kcal/gram upon being metabolized) [2]: about 3.3 kcal/gram |
| CCCCCCCC/C=C\CCCCCCCC(=O)NC(COC(=O)CCCCCCC/C=C\CCCCCCCC)COC(=O)CCCCCCC/C=C\CCCCCCCC [Example 3, 1,3-Bis(oleoyloxy)propyl 2-oleamide] | 50% | – |
| CCCCCCCC/C=C\CCCCCCCC(=O)NC(C)(COC(=O)CCCCCCC/C=C\CCCCCCCC)COC(=O)CCCCCCC/C=C\CCCCCCCC [Example 4, 2-Methyl-1,3-bis(oleoyloxy)propyl 2-oleamide] | 10% | – |
| CCCCCCCC/C=C\CCCCCCCC(=O)OCC(COC(=O)CCCCCCC/C=C\CCCCCCCC)OC(=O)CCCCCCC/C=C\CCCCCCCC [triolein] | – | hydrolysis of triglyceride control [3]: substantially hydrolyzed |
| corn oil | – | caloric availability of reference substance [4]: 9.0 kcal/gm |
